Data: patent publication US6235284A, “Synthetic polypeptides belonging to the hepatitis C virus (HCV) and which can be used especially for detecting the latter” (Bio Merieux, priority 1992, dated 2001)

Key:
[1] = tested on: anti-HCV antibodies binding onto peptide S42G; assay: Inhibition test: inhibition of binding of anti-HCV antibodies onto peptide S42G by preincubation with peptides; parameters: species or system human; conditions: inhibitor 0.1 mg/ml
Experimental: To evaluate this hypothesis, inhibition tests, whose usefulness lies in the fact that they allow the formation of the antigen-antibody complex in liquid medium, were carried out, thus dispensing with possible artifacts linked to the adsorption of peptides onto a solid support.
The inhibition experiments were carried out by reaction, in liquid phase, of the HCV sera with the peptides followed by reaction of the remaining antibodies with the peptide adsorbed onto the microplates. The inhibitory peptides are incubated at a concentration of 0.1 mg/ml with sera of appropriate dilution. The rest of the manipulation is identical to that described for the ELISA test.
Peptide S18D (SEQ ID NO:11), or V22G (SEQ ID NO:12), or a mixture of both, is preincubated overnight in the presence of the serum to be tested. The antibodies can bind onto the corresponding sites.

[2] = tested on: anti-HCV antibodies (HCV-positive sera); assay: ELISA detection of anti-HCV antibodies in HCV-positive sera with adsorbed peptides; format: binding, human
Summary of the method: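 Peptides were adsorbed at 10 μg/ml for 2 h at 37 °C and blocked with 10% goat serum. Sera, first tested at 1/100, were incubated 1 h at 37 °C, detected with peroxidase anti-human IgG and OPD, and read at OD 492 nm (in places ×10^3), in duplicate.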

V22G: a peptide of 24 amino acids covering sequence 22 to 45 of the CORE protein (VKFPGGGQIVGGVYLLPRRGPRLG)
inhibition ([1]; serum B4, 1/10,000): 83.6% | inhibition ([1]; serum P5, 1/10,000): 83.0% | inhibition ([1]; serum P7, 1/10,000): 81.0% | inhibition ([1]; serum P8, 1/10,000): 77.4% | inhibition ([1]; serum P18, 1/10,000): 48.0% | inhibition ([1]; serum P22, 1/10,000): 65.5% | inhibition ([1]; serum P25, 1/10,000): 71.8% | inhibition ([1]; serum P31, 1/10,000): 39.9% | inhibition ([1]; serum P37, 1/10,000): 88.7% | inhibition ([1]; serum P38, 1/10,000): 70.3% | optical density at 492 nm ([2]; Table 2, line 68, serum not named (below CTS), 1/100): 2.500 OD | optical density at 492 nm ([2]; Table 2, line 69, serum not named (below CTS), 1/1000): 1.605 OD | optical density at 492 nm ([2]; Table 2, line 70, serum not named (below CTS), 1/10000): 0.255 OD | optical density at 492 nm ([2]; Table 2, line 75, serum B4, 1/1000): 1.214 OD | optical density at 492 nm ([2]; Table 2, line 76, serum B4, 1/1000 (so in the source)): 0.144 OD | optical density at 492 nm ([2]; Table 2, serum B1, 1/100): 1.225 OD | optical density at 492 nm ([2]; Table 2, serum B2, 1/100): 0.756 OD | optical density at 492 nm ([2]; Table 2, serum B3, 1/100): 0.329 OD | optical density at 492 nm ([2]; Table 2, serum B4, 1/100): 2.500 OD | optical density at 492 nm ([2]; Table 2, serum B5, 1/100): 0.863 OD | optical density at 492 nm ([2]; Table 2, serum B6, 1/100): 0.749 OD | optical density at 492 nm ([2]; Table 2, serum B7, 1/100): 2.102 OD | optical density at 492 nm ([2]; Table 2, serum B8, 1/100): 0.358 OD | optical density at 492 nm ([2]; Table 2, serum B9, 1/100): 2.082 OD | optical density at 492 nm ([2]; Table 2, serum B10, 1/100): 0.225 OD | optical density at 492 nm ([2]; Table 2, serum B11, 1/100): 0.616 OD | optical density at 492 nm ([2]; Table 2, serum B12, 1/100): 1.017 OD | optical density at 492 nm ([2]; Table 2, serum B13, 1/100): 0.304 OD | optical density at 492 nm ([2]; Table 2, serum B14, 1/100): 0.186 OD | optical density at 492 nm ([2]; Table 2, serum B15, 1/100): 0.954 OD | optical density at 492 nm ([2]; Table 2, serum B16, 1/100): 2.500 OD | optical density at 492 nm ([2]; Table 2, serum CTS, 1/100): 2.500 OD | optical density at 492 nm ([2]; Table 2, serum CTS, 1/1000): 1.155 OD | optical density at 492 nm ([2]; Table 2, serum CTS, 1/10000): 0.043 OD | optical density at 492 nm ([2]; Table 2, serum P1, 1/100): 0.426 OD | optical density at 492 nm ([2]; Table 2, serum P2, 1/100): 0.290 OD | optical density at 492 nm ([2]; Table 2, serum P3, 1/100): 0.503 OD | optical density at 492 nm ([2]; Table 2, serum P4, 1/100): 1.739 OD | optical density at 492 nm ([2]; Table 2, serum P5, 1/100): 2.500 OD | optical density at 492 nm ([2]; Table 2, serum P5, 1/1000): 2.293 OD | optical density at 492 nm ([2]; Table 2, serum P5, 1/10000): 0.578 OD | optical density at 492 nm ([2]; Table 2, serum P6, 1/100): 0.000 OD | optical density at 492 nm ([2]; Table 2, serum P7, 1/100): 2.500 OD | optical density at 492 nm ([2]; Table 2, serum P7, 1/1000): 1.590 OD | optical density at 492 nm ([2]; Table 2, serum P7, 1/10000): 0.237 OD | optical density at 492 nm ([2]; Table 2, serum P8, 1/100): 2.241 OD | optical density at 492 nm ([2]; Table 2, serum P8, 1/1000): 0.476 OD | optical density at 492 nm ([2]; Table 2, serum P8, 1/10000): 0.049 OD | optical density at 492 nm ([2]; Table 2, serum P9, 1/100): 0.008 OD | optical density at 492 nm ([2]; Table 2, serum P10, 1/100): 0.026 OD | optical density at 492 nm ([2]; Table 2, serum P11, 1/100): 2.500 OD | optical density at 492 nm ([2]; Table 2, serum P12, 1/100): 2.500 OD | optical density at 492 nm ([2]; Table 2, serum P12, 1/1000): 2.500 OD | optical density at 492 nm ([2]; Table 2, serum P12, 1/10000): 0.106 OD | optical density at 492 nm ([2]; Table 2, serum P13, 1/100): 0.013 OD | optical density at 492 nm ([2]; Table 2, serum P14, 1/100): 1.778 OD | optical density at 492 nm ([2]; Table 2, serum P15, 1/100): 1.810 OD | optical density at 492 nm ([2]; Table 2, serum P16, 1/100): 2.500 OD | optical density at 492 nm ([2]; Table 2, serum P17, 1/100): 1.832 OD | optical density at 492 nm ([2]; Table 2, serum P18, 1/100): 2.500 OD | optical density at 492 nm ([2]; Table 2, serum P18, 1/1000): 0.598 OD | optical density at 492 nm ([2]; Table 2, serum P18, 1/10000): 0.072 OD | optical density at 492 nm ([2]; Table 2, serum P19, 1/100): 0.010 OD | optical density at 492 nm ([2]; Table 2, serum P20, 1/100): 2.249 OD | optical density at 492 nm ([2]; Table 2, serum P21, 1/100): 2.272 OD | optical density at 492 nm ([2]; Table 2, serum P22, 1/100): 2.500 OD | optical density at 492 nm ([2]; Table 2, serum P22, 1/1000): 0.702 OD | optical density at 492 nm ([2]; Table 2, serum P22, 1/10000): 0.088 OD | optical density at 492 nm ([2]; Table 2, serum P23, 1/100): 0.015 OD | optical density at 492 nm ([2]; Table 2, serum P24, 1/100): 0.579 OD | optical density at 492 nm ([2]; Table 2, serum P25, 1/100): 2.252 OD | optical density at 492 nm ([2]; Table 2, serum P25, 1/1000): 0.695 OD | optical density at 492 nm ([2]; Table 2, serum P25, 1/10000): 0.089 OD | optical density at 492 nm ([2]; Table 2, serum P26, 1/100): 2.500 OD | optical density at 492 nm ([2]; Table 2, serum P26, 1/1000): 1.541 OD | optical density at 492 nm ([2]; Table 2, serum P26, 1/10000): 0.199 OD | optical density at 492 nm ([2]; Table 2, serum P27, 1/100): 1.600 OD | optical density at 492 nm ([2]; Table 2, serum P28, 1/100): 2.500 OD | optical density at 492 nm ([2]; Table 2, serum P29, 1/100): 0.005 OD | optical density at 492 nm ([2]; Table 2, serum P30, 1/100): 2.500 OD | optical density at 492 nm ([2]; Table 2, serum P31, 1/100): 2.500 OD | optical density at 492 nm ([2]; Table 2, serum P31, 1/1000): 2.500 OD | optical density at 492 nm ([2]; Table 2, serum P31, 1/10000): 0.847 OD | optical density at 492 nm ([2]; Table 2, serum P32, 1/100): 1.639 OD | optical density at 492 nm ([2]; Table 2, serum P33, 1/100): 1.987 OD | optical density at 492 nm ([2]; Table 2, serum P34, 1/100): 1.618 OD | optical density at 492 nm ([2]; Table 2, serum P35, 1/100): 1.504 OD | optical density at 492 nm ([2]; Table 2, serum P36, 1/100): 1.226 OD | optical density at 492 nm ([2]; Table 2, serum P37, 1/100): 2.500 OD | optical density at 492 nm ([2]; Table 2, serum P37, 1/1000): 0.865 OD | optical density at 492 nm ([2]; Table 2, serum P37, 1/10000): 0.128 OD | optical density at 492 nm ([2]; Table 2, serum P38, 1/100): 2.500 OD | optical density at 492 nm ([2]; Table 2, serum P38, 1/1000): 1.582 OD | optical density at 492 nm ([2]; Table 2, serum P38, 1/10000): 0.057 OD | optical density at 492 nm ([2]; Table 2, serum P39, 1/100): 1.835 OD | optical density at 492 nm ([2]; Table 2, serum P40, 1/100): 2.500 OD | optical density at 492 nm ([2]; Table 2, serum P41, 1/100): 2.218 OD | optical density at 492 nm ([2]; Table 2, serum P42, 1/100): 0.000 OD | reactivity towards HCV-positive sera ([2]; in words): carry one or more epitopes
